Source: PMC9873984, “Membrane cholesterol regulates inhibition and substrate transport by the glycine transporter, GlyT2” (Life Science Alliance, 2023)
Changes are numbered by the printed parent chain.

How the values were obtained:
[1] = biological target: T1, GlyT2 Y430F mutant (Homo sapiens, UniProt Q9Y345, Y430F); experiment: Inhibitor washout time course (reversibility); format: cell-based; set-up: expressed in transfected cells; host or cells: Xenopus laevis oocytes injected with mutant RNA (pOTV vector)
T1 sequence (Q9Y345 1-797 Y430F): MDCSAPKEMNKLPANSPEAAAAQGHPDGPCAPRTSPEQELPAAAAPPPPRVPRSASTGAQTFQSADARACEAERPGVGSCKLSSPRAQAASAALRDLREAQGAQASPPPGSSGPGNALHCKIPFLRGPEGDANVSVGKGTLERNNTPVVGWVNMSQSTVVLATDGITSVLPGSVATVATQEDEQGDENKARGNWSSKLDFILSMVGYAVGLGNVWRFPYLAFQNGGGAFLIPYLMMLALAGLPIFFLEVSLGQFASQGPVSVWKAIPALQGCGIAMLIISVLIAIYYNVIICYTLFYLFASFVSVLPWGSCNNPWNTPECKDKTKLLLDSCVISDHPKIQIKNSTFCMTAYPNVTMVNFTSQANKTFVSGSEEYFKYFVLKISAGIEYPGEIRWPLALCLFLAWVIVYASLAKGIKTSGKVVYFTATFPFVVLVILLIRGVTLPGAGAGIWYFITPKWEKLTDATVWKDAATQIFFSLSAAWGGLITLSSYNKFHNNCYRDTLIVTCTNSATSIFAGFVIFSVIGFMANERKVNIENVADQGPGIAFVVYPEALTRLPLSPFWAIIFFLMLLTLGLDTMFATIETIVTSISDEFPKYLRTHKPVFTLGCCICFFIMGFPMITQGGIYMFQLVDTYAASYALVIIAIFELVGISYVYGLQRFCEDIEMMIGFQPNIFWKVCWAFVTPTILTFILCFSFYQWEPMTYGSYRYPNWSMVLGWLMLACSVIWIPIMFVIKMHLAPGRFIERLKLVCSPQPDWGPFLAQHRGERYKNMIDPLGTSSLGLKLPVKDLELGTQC
Description: Reversibility of GlyT2 inhibitors was determined by applying an EC50 concentration of glycine followed by co-application of the inhibitor at an IC50 concentration once a stable current had been achieved. Inhibitors were applied for 4 min as this was sufficient time to produce substantial inhibition for each compound and allowed for their direct comparison. At the conclusion of 4 min (time 0), ND96 buffer was perfused through the recording chamber to wash the oocyte. […] Transport currents were normalized to glycine currents in the absence of inhibitor and converted to % recovery values via Y=It−It=0/Imax−It=0, where Y is % recovery, I is current in nA, Imax is the maximal current produced by the glycine EC50, and t is time in minutes. Washout kinetics were then determined by fitting % recovery values to the first-order rate equation: Y=(Y0−Plateau).e^(−Kt)+Plateau, where Y is the % recovery, Y0 is the point, which crosses the Y-axis (constrained to 0) and increases to the plateau (constrained to between 0 and 100), K is the rate constant (1/t), and t is time in minutes. […] Because of the slowly […] nature of the inhibitors, washout time courses involving cyclodextrin treatment could not be performed on the same cell. […] As these experiments could not occur on the same cell, differences in half-life and maximal recovery were analysed via an unpaired two-tailed t test.

[2] = biological target: T2, WT GlyT2 (Homo sapiens, UniProt Q9Y345); conditions: read-out: Glycine EC50; WT GlyT2 in Xenopus laevis oocytes; glycine 1 μM – 3 mM
T2 sequence (Q9Y345 1-797): T1 sequence (Q9Y345 1-797 Y430F) with F430Y
Description: The transport activity of GlyT2 is an electrogenic process as it couples the transport of glycine to the co-transport of 3 Na^+ and 1 Cl^− and thus can be measured using two-electrode voltage-clamp electrophysiology. Oocytes expressing GlyTs were voltage-clamped at −60 mV, and glycine-induced whole-cell currents were measured using a GeneClamp 500 amplifier (Axon Instruments), and a PowerLab 2/26 chart recorder (ADInstruments) and LabChart Software (ADInstruments).
Functionality of WT and mutant GlyT2 transporters was assessed by applying increasing concentrations of glycine (1–3,000 µM) in ND96 until a stable current was achieved. Glycine concentrations were applied individually and completely removed from the system via washing with recording buffer before proceeding to the next concentration. EC50 values for each transporter were determined by fitting concentration–response data to the modified Michaelis–Menten equation: I=([Gly].Imax)/(EC50+[Gly]), where I is current in nA, [Gly] is the concentration of glycine, Imax is the current generated by a maximal concentration of glycine, and EC50 is the concentration of glycine that generates a half-maximal current.

[3] = washout after 4 min IC50 concentration

Row | SMILES | Recovery at 30 Min [1, 3] | other results
1 | CCCCCCCC/C=C\CCCCCCCC(=O)N[C@@H](Cc1c[nH]c2ccccc12)C(=O)O [Oleoyl-L-Tryptophan, oleoyl-L-tryptophan] | No Recovery | Half-life (transport current recovery) [1, 3]: No Recovery
2 | NCC(=O)O [Glycine, glycine] | – | EC50 [2]: 18 µM
3 | CCCCCCCC/C=C\CCCCCCCC(=O)N[C@@H](CC(C)C)C(=O)O [Oleoyl-L-Leucine, oleoyl-L-leucine] | 26.6 ± 2.3 % | Reduction in recovery of current 30 min after application, vs WT [1]: 24.5%
4 | CCCCCCCC/C=C\CCCCCCCC(=O)O[C@H](CC(=O)[O-])C[N+](C)(C)C [Oleoyl-L-Carnitine, oleoyl-L-carnitine] | 24.7% | –
5 | CCCCCCCC/C=C\CCCCCCCC(=O)N[C@@H](CCCCN)C(=O)O [Oleoyl-L-Lysine, oleoyl-L-lysine] | 68.5 ± 2.1 % | Increase in recovery after 30 min, vs WT [1]: 13.4%
